Patent publication US20060003920A1, “LAT1 transporters expressed in cancer cells” (Xenoport, Inc., priority 2004, published 2006)

Biological target: T1, LAT1 and 4F2HC (Homo sapiens, UniProt Q01650)
T1 construct: expressed in transfected cells; host or cells: Xenopus oocytes, injected with in vitro transcribed cRNA
Assay: 14C-gabapentin uptake into Xenopus oocytes expressing LAT1 and 4F2HC
Type: cell-based
Conditions: Xenopus oocytes injected with LAT1 and 4F2HC cRNA vs noninjected controls
Text: To assess transport function of a specific transporter protein, it can be desirable to clone the cDNA and express the protein in cells that have low endogenous transport activity. Human LAT1 was cloned by PCR, fully sequenced, and subcloned into plasmids that can be used for expression in mammalian cells or Xenopus oocytes. The co-subunit required for LAT1 function, 4F2HC (Genbank accession AB018010), was also cloned and sequenced. Unless otherwise noted, 4F2HC was also co-expressed in each heterologous system described in the examples. […] For expression in Xenopus oocytes, in vitro LAT1 and 4F2HC cRNA was prepared and injected into defoliculated oocytes.

T1 sequence (Q01650 whole entry): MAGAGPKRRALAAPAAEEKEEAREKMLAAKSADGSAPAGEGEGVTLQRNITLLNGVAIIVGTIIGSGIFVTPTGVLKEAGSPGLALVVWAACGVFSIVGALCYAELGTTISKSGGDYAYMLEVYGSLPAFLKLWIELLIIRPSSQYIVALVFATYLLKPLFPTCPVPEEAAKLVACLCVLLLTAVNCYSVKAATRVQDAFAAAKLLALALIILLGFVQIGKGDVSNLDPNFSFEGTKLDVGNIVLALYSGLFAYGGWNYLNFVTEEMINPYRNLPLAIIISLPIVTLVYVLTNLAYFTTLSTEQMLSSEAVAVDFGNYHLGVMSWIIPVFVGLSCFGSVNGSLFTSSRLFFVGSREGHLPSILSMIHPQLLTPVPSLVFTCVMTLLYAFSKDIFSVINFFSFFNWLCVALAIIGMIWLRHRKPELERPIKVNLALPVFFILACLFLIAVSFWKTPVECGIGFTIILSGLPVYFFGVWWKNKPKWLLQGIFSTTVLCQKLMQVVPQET
T1 sequence (P08195 102-630 partner): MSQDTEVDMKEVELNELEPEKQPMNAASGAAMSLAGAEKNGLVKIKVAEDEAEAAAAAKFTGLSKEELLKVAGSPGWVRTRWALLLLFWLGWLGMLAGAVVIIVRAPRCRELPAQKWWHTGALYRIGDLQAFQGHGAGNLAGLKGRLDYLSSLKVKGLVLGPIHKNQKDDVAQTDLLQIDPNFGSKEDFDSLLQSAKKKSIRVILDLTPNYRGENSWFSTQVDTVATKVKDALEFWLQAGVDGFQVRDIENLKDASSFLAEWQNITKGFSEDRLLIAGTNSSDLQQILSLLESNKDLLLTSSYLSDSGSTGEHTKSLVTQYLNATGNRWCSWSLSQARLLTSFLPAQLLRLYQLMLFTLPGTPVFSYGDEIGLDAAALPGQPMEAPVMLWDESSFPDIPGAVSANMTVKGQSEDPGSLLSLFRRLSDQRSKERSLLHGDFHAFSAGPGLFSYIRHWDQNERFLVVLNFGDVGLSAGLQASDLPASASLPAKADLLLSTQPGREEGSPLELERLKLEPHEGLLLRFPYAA

SMILES: NCC1(CC(=O)O)CCCCC1 [Gabapentin]
- 14C-gabapentin uptake into oocytes: higher levels of 14C-gabapentin uptake than noninjected controls
